Test [1] relates to MDA-MB-231/ATCC (breast cancer). Description: cells. The test is classed as cell-based. The text has this: (§1) The dose–response was also studied in the same 60 cancer cell lines, with outstanding results. […] Table 2 summarizes the GI50, TGI, and LC50 values of representative cell lines. Full data mean GI50 graphs are provided in the Supplementary Materials.
The subject of test [2] is SK-MEL-5 (melanoma). Description: cells. Format: cell-based.
From the text: as §1

The test system of test [3] is SF-593 (CNS cancer). Nature of the test: cells. Format: cell-based.
From the text: as §1

Test [4] has as its system COLO-205 (colon cancer). Description: cells. The test is classed as cell-based.
From the text: as §1

The subject of test [5] is MCF-7, HTB-54, HT-29 and HCT-116 cancer cell lines. Description: MTT assay, panel of four cancer cell lines. The settings on record: MCF-7, HTB-54, HT-29, HCT-116, read-out: IC50 against the four cancer cell lines tested (all the cell lines). The test is classed as cell-based. How it is done: A cell viability assay of each compound was carried out using an MTT assay. Each selenourea was dissolved in dimethyl sulfoxide (DMSO) at a concentration of 0.01 M. Serial dilutions were prepared with non-supplemented culture medium. Cytotoxic activity of each selenourea was determined at two different concentrations (10 and 50 µM) in MCF-7, HTB-54, and HT-29 cells. In addition, selected compounds were tested at seven different concentrations (0.1, 1, 5, 10, 25, 50, 100 µM) on MCF-7, HT-29, HCT-116, HTB-54, 184B5, and BEAS-2B cells. The number of passages before defrosting the cells was 3, and they were kept under culture up to a maximum of 15.
Briefly, 1 × 10^4 cells/well were grown in 96-well plates for 24 h. Then, these cells were incubated with either DMSO (negative control) at 5 µM or a different concentration of each tested selenourea for 48 h. A volume of 20 µL of MTT was added 150 min before the termination point to measure cellular viability. After this time, culture medium was removed. The resultant formazan crystals were dissolved in 50 µL of DMSO, and absorbance was measured at 570 nm. Results are expressed as IC50, the half maximal inhibitory concentration. This value was calculated using GraphPad Prism 7 software by nonlinear curve fitting. Furthermore, the selectivity index (SI) was calculated as the ratio of the IC50 values determined for the non-malignant and the tumoral cells (IC50 (184B5)/IC50 (MCF-7) or (IC50 (BEAS-2B)/IC50 (HTB-54). Data were obtained from at least three independent experiments performed in triplicates.
Those derivatives that reduced the growth of the cell lines below 50% at 10 µM in at least one cell line were selected for being evaluated at five concentrations between […] and 100 µM. Ten compounds (1d, 1e, 2a, 2d, 3a, 6a, 6b, 6c, 6d, and 6e) passed this threshold and four of them (1e, 6c, 6d and 6e) in all three cancer cell lines. The data are expressed as IC50 (mean ± SD) in a panel of four cancer cell lines (MCF-7, HTB-54, HT-29, and HCT-116), and are shown in Table 1. Cisplatin was used as a standard drug. […] Additionally, reported IC50 values of a well-known antitumor selenocompound, i.e., sodium selenite (Na2SeO3), were used as reference for comparision with the selected selenoureas.
(In general: Tetrazolium assays rely on reduction of a dye to a coloured formazan, in cell work by metabolically active cells.)

In test [6] the test system is MCF-7 cells (breast adenocarcinoma). Description: MTT cell viability assay, MCF-7. The test is classed as cell-based, human. In a few lines: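 Cells at 1 × 10^4/well grown 24 h, then treated 48 h with selenourea at 10 and 50 µM (selected compounds 0.1–100 µM), DMSO as negative control. MTT added 150 min before end, formazan read at 570 nm; IC50 by nonlinear fit, ≥3 independent experiments in triplicate.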

Test [7] deals with HT-29 cells. Description: Cell cycle progression, propidium iodide flow cytometry. The settings on record: HT-29, 48 h, 0.1, 1, 5 and 10 µM. Format: cell-based, human. The procedure: 6 × 10^5 cells/well were grown in 6-well plates for 24 h. Cultures were treated with the corresponding amount of the selected compounds, DMSO (control), or 10 μM camptothecin (positive control). Propidium iodide (PI) was used as DNA stain dye to determine cell cycle distribution. Cells were stored at −20 °C with 70% ethanol for at least 24 h. Then, ethanol was removed, cells were washed with PBS, and stained for 30 min with 500 µL of a solution containing 0.001% triton, 0.2% w/v RNase, and 0.02% PI.
To gain further knowledge about the mechanism of action of 6c, we investigated the effect of this compound on cell cycle progression using flow cytometry analysis, with propidium iodide as a DNA staining agent. We analyzed the effect at 48 h treatment with four different concentrations (0.1, 1, 5, and 10 µM) of compound 6c on HT-29 cells. Camptothecin (10 μM) was used as a positive control. […] The cell cycle modulation of 6c is very similar to camptothecin, the reference compound used in the study.
(Flow cytometry measures light scatter and fluorescence of single cells or particles in a stream.)

The source of these data is paper PMC8156206, “Novel N,N′-Disubstituted Selenoureas as Potential Antioxidant and Cytotoxic Agents” (Antioxidants, 2021).

As a reminder, the GI50 is the concentration at which growth is held to half of that of the control. Read a high GI50 as less potent growth inhibition. As a reminder, the TGI is the concentration giving total growth inhibition. Lower therefore signals greater sensitivity of the cells. A word on the IC50: it is the concentration at which inhibition is half-maximal. Usually viability stands for a per cent measure of how many cells are alive, often set against a control.

SMILES strings stand for the structures.

On to `COc1ccc(NC(=[Se])NC23CC4CC(CC(C4)C2)C3)cc1` [Compound 6c, N´-adamantyl-N-(4-methoxyphenyl)selenourea], for which the CC50 was determined as 8.51 µM in test [1] (Homo sapiens, MDA-MB-231, read-out: LC50); 4.27 µM in test [2] (Homo sapiens, SK-MEL-5, read-out: LC50); 9.33 µM in test [3] (read-out: LC50); 9.33 µM in test [4] (Homo sapiens, COLO 205, read-out: LC50). For the same compound, the GI50 was 1780 nM in test [1] (Homo sapiens, MDA-MB-231/ATCC, NCI-60); 560 nM in test [2] (Homo sapiens, SK-MEL-5, NCI-60); 1910 nM in test [3] (SF-593, NCI-60); 1660 nM in test [4] (Homo sapiens, COLO-205, NCI-60). Also, the TGI in test [1] (MDA-MB-231/ATCC, NCI-60) stood at 3.89 µM; in test [2] (SK-MEL-5, NCI-60), 1.78 µM; in test [3] (SF-593, NCI-60), 4.17 µM; in test [4] (COLO-205, NCI-60), 3.98 µM. Also, the IC50 in test [5] was less than 10 µM; in test [6] (Homo sapiens, MCF7, 48 h, MTT, mean ± SD, read-out: IC50 MCF-7 (breast)) it was 4.94 ± 1.99 µM. Also, the viability at 10 µM in test [6] (Homo sapiens, MCF7, MCF-7, 10 µM, 48 h, MTT, read-out: cell viability, percentage of live cells) came to 37.9%. Further, the viability at 50 µM in test [6] (Homo sapiens, MCF7, MCF-7, 50 µM, 48 h, MTT, read-out: cell viability, percentage of live cells) is 9.2%. Moreover, the “SI (selectivity index) breast” value in test [6] (IC50 (184B5)/IC50 (MCF-7)) turned out to be 1.46. In addition, the cell cycle modulation result in test [7] is given as “cell cycle arrest at the S phase in a concentration-dependent manner”.
